A word on the IC50: it is the point on the concentration scale where inhibition reaches its midpoint. The low end stands for higher potency, the high end for lower potency.

SMILES strings stand for the structures.

Experimental findings from patent US9173869B2, “Mediators of hedgehog signaling pathways, compositions and uses related thereto” (CURIS, INC., priority 1999, dated 2015) are described below.

The subject of one assay is Hedgehog pathway (Shh-induced Gli-transcription activity) in 10T1/2(s12) cells. The assay is described as follows: Gli-Luc assay (high-throughput screening, Hedgehog-responsive luciferase reporter). Format: cell-based. The conditions noted are these: Gli-Luc response, OCT-SHH 0.3 μg/ml, about 24 h. On the procedure: Compounds to be tested are dissolved in DMSO to a concentration of 10 mM, and stored at −20° C. To activate the Hedgehog pathway in the assay cells, an octylated (lipid-modified) form of the N-terminal fragment of the Sonic Hedgehog protein (OCT-SHH) is used. This N-terminal SHH fragment is produced bacterially. The octylation involves reaction of the N-terminal fragment, via its amino-terminal cysteine moiety, with octyl maleimide.
Compounds may be tested in the “Gli-Luc” assay below, using the cell line 10T(s12), wherein the cells contain a Hedgehog-responsive reporter construct utilizing Luciferase as the reporter gene. In this way, Hedgehog pathway signaling activity can be measured via the Gli-Luc response.
10t1/2(s12) cells are plated in a 96-well micro-titer plate (MTP) at 20,000 cells/well in full medium [DMEM with 10% FBS]. Then plates are placed in the incubator for incubation overnight (O/N), at 37° C. and 5% CO2. After 24 h, the medium is replaced with Luciferase-assay medium (DMEM with 0.5% FBS). Compounds are thawed and diluted in assay medium at 3:1000 (about 300-fold) resulting in a starting concentration of about 30 μM.
Subsequently, 150 μl of each 30 μM sample is added to the first wells (in triplicate). The MTP samples are then diluted at 3-fold dilutions to a total of seven wells, ultimately resulting in a regiment of seven dilutions in triplicate, for each compound. Next, the protein ligand OCT-SHH is diluted in Luciferase-assay medium and added to each well at a final concentration of 0.3 μg/ml. Plates are then returned to the incubator for further incubation O/N, at 37° C. and 5% CO2. After about 24 h, plates are removed from the incubator and the medium is aspirated/discarded. Wells are washed once with assay buffer [PBS+1 mM Mg^2+ and 1 mM Ca^2+]. Then 50 μl of assay buffer is added to each well. The Luciferase assay reagent is prepared as described by the vendor (LucLite kit from Packard), and 50 μl is added to each well. Plates are incubated at room temperature (RT) for about 30 minutes after which the signals are read, again at RT, on a Topcount (Packard).
`CC(c1nc2ccccc2c(=O)n1-c1ccc(F)cc1)N(C)C(=O)Nc1ccc([N+](=O)[O-])c(Cl)c1` (stereo not shown) [Compound 62] registered an IC50 of less than 1 µM. Take `O=C(NCc1nc2ccccc2c(=O)n1-c1ccc(F)cc1)Nc1ccc(Cl)c(C(F)(F)F)c1` [Compound 5, 1-(4-Chloro-3-trifluoromethyl-phenyl)-3-[3-(4-fluoro-phenyl)-4-oxo-3,4-dihydro-quinazolin-2-ylmethyl]-urea]: the IC50 is less than 0.1 µM.

`CCC(c1nc2ccccc2c(=O)[nH]1)N1CCN(C(=O)c2ccc(-c3ccccc3)cc2)C(C)C1` (stereo not shown) [Compound 46] came in with an IC50 of less than 0.5 µM. The same measure, in the same setting: the figure for `O=C(NCc1nc2ccccc2c(=O)n1-c1ccc(F)cc1)Nc1ccc(Cl)c(Cl)c1` [Compound 68] is less than 1 µM; for `CC(c1nc2ccccc2c(=O)n1-c1ccc(F)cc1)N(C)C(=O)Nc1ccc(Cl)c(Cl)c1` (stereo not shown) [Compound 53] it is less than 1 µM. Still for that read-out and setting: the figure for `CC(C)c1cccc(NC(=O)N(C)C(C)c2nc3ccccc3c(=O)n2-c2ccc(F)cc2)c1` (stereo not shown) [Compound 57] is less than 10 µM; for `O=C(NCc1nc2ccccc2c(=O)n1-c1ccc(F)cc1)Nc1cc(Cl)nc(Cl)c1` [Compound 6, 1-(2,6-Dichloro-pyridin-4-yl)-3-[3-(4-fluoro-phenyl)-4-oxo-3,4-dihydro-quinazolin-2-ylmethyl]-urea] it is less than 0.5 µM; for `O=C(NCc1nc2ccccc2c(=O)n1-c1ccc(F)cc1)Nc1cccc(C(F)(F)F)c1` [Compound 44] it is less than 1 µM.

In turn, `CCC(=O)N1CCN(C(CC)c2nc3ccccc3c(=O)n2-c2ccc(C)cc2)C(C)C1` (stereo not shown) [Compound 42] gave an IC50 of less than 5 µM. Same read-out and setting: the figure for `CC(c1nc2ccccc2c(=O)n1-c1ccc(F)cc1)N(C)C(=O)Nc1ccc(Cl)cc1[N+](=O)[O-]` (stereo not shown) [Compound 66] is less than 10 µM; for `CC(c1nc2ccccc2c(=O)n1-c1ccc(F)cc1)N(C)C(=O)Nc1ccc(-c2ccccc2)cc1` (stereo not shown) [Compound 56] it is less than 10 µM; for `CC(c1nc2ccccc2c(=O)n1-c1ccc(F)cc1)N(Cc1ccco1)C(=O)Nc1cccc(F)c1` (stereo not shown) [Compound 31] it is less than 10 µM.

The compound `CCCCCCCCC(=O)N(CCCCC)C(C)c1nc2ccccc2c(=O)n1-c1ccccc1` (stereo not shown) [Compound 41] yielded an IC50 of less than 10 µM. On the same count and under the same terms, the figure for `Cc1c(NC(=O)NCc2nc3ccccc3c(=O)n2-c2ccc(F)cc2)cccc1SC(F)(F)F` [Compound 67] is less than 5 µM; for `O=C(NCCCc1nc2ccccc2c(=O)n1-c1ccc(F)cc1)Nc1cccc(C(F)(F)F)c1` [Compound 74] it is less than 5 µM; for `CCOC(=O)c1ccccc1NC(=O)N(C)C(C)c1nc2ccccc2c(=O)n1-c1ccc(F)cc1` (stereo not shown) [Compound 63] it is less than 10 µM. On the same count and under the same terms, the figure for `CC(c1nc2ccccc2c(=O)n1-c1ccc(F)cc1)N(C)C(=O)Nc1cc(Cl)nc(Cl)c1` (stereo not shown) [Compound 58] is less than 5 µM.

Regarding `CC(c1nc2ccccc2c(=O)n1-c1ccc(F)cc1)N(C)C(=O)Nc1cccc(SC(F)(F)F)c1` (stereo not shown) [Compound 52], the IC50 is less than 1 µM. As for `COc1cccc(NC(=O)NCc2nc3ccccc3c(=O)n2-c2ccc(F)cc2)c1C` [Compound 71], the IC50 was less than 10 µM. On the same count and under the same terms, under `CC(c1nc2ccccc2c(=O)n1-c1ccc(F)cc1)N(C)C(=O)Nc1ccc(SC(F)(F)F)cc1` (stereo not shown) [Compound 60] stands less than 5 µM. Still for that read-out and setting: the figure for `CCOOC(=O)c1cccc(NC(=O)N(C)C(C)c2nc3ccccc3c(=O)n2-c2ccc(F)cc2)c1` (stereo not shown) [Compound 65] is less than 10 µM; for `CC(NC(=O)Nc1cccc(C(F)(F)F)c1)c1nc2ccccc2c(=O)n1-c1ccc(F)cc1` (stereo not shown) [Compound 73] it is less than 5 µM; for `CC(c1nc2ccccc2c(=O)n1-c1ccc(F)cc1)N(C)C(=O)Nc1ccc(Cl)c(C(F)(F)F)c1` (stereo not shown) [Compound 61] it is less than 1 µM. The same measure, in the same setting: the figure for `O=C(Cc1cccc(C(F)(F)F)c1)NCCc1nc2ccccc2c(=O)n1-c1ccc(F)cc1` [Compound 50] is less than 1 µM. The compound `CC(c1nc2ccccc2c(=O)n1-c1ccc(F)cc1)N(C)C(=O)Nc1ccc(C(F)(F)F)cc1` (stereo not shown) [Compound 54] registered an IC50 of less than 5 µM. Same read-out and setting: the figure for `O=C(NCc1nc2ccccc2c(=O)n1-c1ccc(F)cc1)Nc1ccc(Cl)c([N+](=O)[O-])c1` [Compound 69] is less than 0.5 µM; for `CCC(c1nc2ccccc2c(=O)n1-c1ccc(C)cc1)N(CCc1ccccc1)C(=O)CCCCF` (stereo not shown) [Compound 39] it is less than 5 µM. Same read-out and setting: under `CCCN(CCC(=O)NC1CCCc2ccccc21)C(=O)c1cc(OC)cc(OC)c1` (stereo not shown) [Compound 47] stands less than 5 µM. Same read-out and setting: under `Cc1c(NC(=O)N(C)C(C)c2nc3ccccc3c(=O)n2-c2ccc(F)cc2)cccc1[N+](=O)[O-]` (stereo not shown) [Compound 59] stands less than 5 µM; under `CC(c1nc2ccccc2c(=O)n1-c1ccc(F)cc1)N(C)C(=O)Nc1cccc(F)c1` (stereo not shown) [Compound 55], less than 5 µM; under `CC(c1nc2ccccc2c(=O)n1-c1ccc(F)cc1)N(C)C(=O)Nc1ccc([N+](=O)[O-])cc1Cl` (stereo not shown) [Compound 64], less than 10 µM.

The compound `CC(c1nc2ccccc2c(=O)n1-c1ccc(F)cc1)N(C)C(=O)Nc1ccc([N+](=O)[O-])c(C(F)(F)F)c1` (stereo not shown) [Compound 32] displayed an IC50 of less than 5 µM. Same read-out and setting: the figure for `CC(c1nc2ccccc2c(=O)n1-c1ccc(F)cc1)N1CCN(C(=O)Nc2ccc(Cl)c(Cl)c2)CC1` (stereo not shown) [Compound 43] is less than 10 µM. Consider `CCCCc1ccc(C(=O)N(Cc2ccccc2)C(CC)c2nc3ccccc3c(=O)n2-c2ccc(C)cc2)cc1` (stereo not shown) [Compound 40], for which the IC50 was less than 10 µM. For `CCC(C)N(CCC(=O)NC1CCCc2ccccc21)C(=O)COc1ccc(Cl)cc1` (stereo not shown) [Compound 49], the IC50 was less than 1 µM. Regarding `CCC(c1nc2ccccc2c(=O)[nH]1)N1CCN(C(=O)Nc2ccc(Cl)c(Cl)c2)C(C)C1` (stereo not shown) [Compound 45], the IC50 is less than 5 µM. `CCCN(C(=O)Nc1cccc(C(F)(F)F)c1)C(C)c1nc2ccccc2c(=O)n1-c1ccc(F)cc1` (stereo not shown) [Compound 36] yielded an IC50 of less than 5 µM.

Compound `O=C(Nc1cccc(C(F)(F)F)c1)NC(c1nc2ccccc2c(=O)n1-c1ccc(F)cc1)C1CC1` (stereo not shown) [Compound 75] registered an IC50 of less than 5 µM. On the same count and under the same terms, under `CCC(C)N(CCC(=O)NC1CCCc2ccccc21)C(=O)c1cccc2ccccc12` (stereo not shown) [Compound 48] stands less than 0.5 µM; under `CCCN(C(=O)Nc1cccc(Cl)c1)C(C)c1nc2ccccc2c(=O)n1-c1ccc(F)cc1` (stereo not shown) [Compound 34], less than 5 µM. Take `CCCN(C(=O)Nc1cccc(OC)c1)C(C)c1nc2ccccc2c(=O)n1-c1ccc(F)cc1` (stereo not shown) [Compound 38]: the IC50 is less than 5 µM. Same read-out and setting: under `CC(c1nc2ccccc2c(=O)n1-c1ccc(F)cc1)N(C)C(=O)Nc1cccc(C#N)c1` (stereo not shown) [Compound 51] stands less than 5 µM.

A further assay concerns gli-1 mRNA in ptc-null cells. Briefly: Ptc-null assay (RT-PCR / quantitative real-time PCR of gli-1 mRNA). The class given is cell-based, mouse. The conditions noted are these: ptc-null cells cultured 3 days, 1 μM of test compound, compared with vehicle. On the procedure:
Ptc-null cells were cultured for 3 days in the presence of vehicle; jervine, a known Patched pathway antagonist (i) used here as a positive control; or 1 μM of a test compound. Total ribonucleic acid (RNA) was isolated from the cells and used for reverse transcriptase-polymerase chain reaction (RT-PCR). […] The gli-1 and actin mRNA samples were then loaded on 1.5% agarose gel and were detected by staining with ethidium bromide. The same samples were analyzed by the quantitative real-time polymerase chain reaction method to quantify the levels of gli-1 mRNA.
A general note: Real-time PCR tracks product formation cycle by cycle.
In the case of `CCCN(CCC(=O)NC1CCCc2ccccc21)C(=O)c1cc(OC)cc(OC)c1` (stereo not shown) [Compound 47], the “expression of gli-1” value is on record as “no significant decrease”. The same measure, in the same setting: the entry for `CCC(C)N(CCC(=O)NC1CCCc2ccccc21)C(=O)COc1ccc(Cl)cc1` (stereo not shown) [Compound 49] is “no significant decrease”; for `CCC(C)N(CCC(=O)NC1CCCc2ccccc21)C(=O)c1cccc2ccccc12` (stereo not shown) [Compound 48] it is “no significant decrease”.

Staying with this assay, now noted: ptc-null cells cultured 3 days, positive control, compared with vehicle.
In the case of `CC1=C2C(=O)[C@H]3[C@@H](CC=C4C[C@@H](O)CC[C@@]43C)[C@@H]2CC[C@]12O[C@@H]1C[C@H](C)CN[C@H]1[C@H]2C` [jervine, reference compound], the “expression of gli-1 mRNA” value was “significantly decreased”.
